Source: patent US20180327354A1, “Unnatural Analogues of Calcitriol and Uses Thereof” (Vidasym, Inc., priority 2009, published 2018)
“Also recorded” adds a separate entry of the source. Where two headings read alike, the source gives them in different places.

Legend:
CD14 = CD14 expression induction in HL-60 promyelocytic leukemia cells (real-time RT-PCR); type: cell-based; conditions: Homo sapiens, HL-60 cells
Method: Some compounds were tested in HL-60 promyelocytic leukemia cells and a primary culture of human coronary artery smooth muscle cells (HCASMC) for CYP24A1 induction. It is well documented that CYP24A1 has a VDRE in its promoter region and is a specific target gene of VDR (Meyer et al., 2007, J Biol Chem 282: 22344-22352). […] Compounds also were tested in HCASMC for their effects in inducing VDR. To assess the suitability of a compound for modulating immune responses, compounds were tested in HL-60 for their effects in inducing CD14 expression. To assess the suitability of a compound for treating thrombosis, compounds also were tested in HCASMC for their effects in modulating thrombomodulin and thrombospondin-1.
Compounds are tested in human HL-60 promyelocytic leukemia cells to assess their potency in inducing the expression of CYP24A1 and CD14. HL-60 cells are cultured in IMDM supplemented with 20% heat-inactivated fetal bovine serum at 37° C. in a humidified 5% CO2-95% air atmosphere. Cells are plated into 6 well plates and treated with test agent for 24 h. Cells are lysed with the addition of 1 mL of Trizol and RNA prepared according to the manufacturer's protocol.
Real-time reverse transcription-PCR is performed with the forward and reverse PCR primers and 250 nM of the TAQMAN™ probe specifically designed for CYP24A1 or CD14. (A TAQMAN™ probe is comprised of a fluorophore covalently attached to the 5′-end of the oligonucleotide probe and a quencher at the 3′-end.) After the data acquisition, the CYP24A1 or CD14 mRNA expression level is normalized to the GAPDH mRNA level. FIGS. 2A and 2B show the results from a typical CYP24A1 (FIG. 2A) and CD14 (FIG. 2B) expression study.

VDR = VDR expression induction in primary culture of human coronary artery smooth muscle cells; type: cell-based; conditions: HCASMC
Method: (§1) Compounds were tested in a primary culture of HCASMC to assess their potency in inducing the expression of CYP24A1 and VDR.
(§2) Primary culture of HCASMC was grown in smooth muscle growth medium SmGM-2 containing 5.5 mM glucose, 5% FBS, 50 μg/ml gentamicin, 50 ng/ml amphotericin-B, 5 μg/ml insulin, 2 ng/ml hFGF, and 0.5 ng/ml hEGF at 37° C. in a humidified 5% CO2-95% air. Cells were grown to >80% confluence and used within five passages.
(§3) Cells were plated into 6 well plates and treated with test agent for 24 h. Cells were lysed with the addition of 1 mL of Trizol and RNA prepared according to the manufacturer's protocol.
(§4) Real-time reverse transcription-PCR was performed with the forward and reverse PCR primers and […] of the TAQMAN™ probe specifically designed for CYP24A1 or VDR. (A TAQMAN™ probe is comprised of a fluorophore covalently attached to the 5′-end of the oligonucleotide probe and a quencher at the 3′-end.) After the data acquisition, the CYP24A1 or VDR mRNA expression level was normalized to the GAPDH mRNA level. […] Group mean±STDEV (standard deviation) are presented.

[1] = Maximal absorbance wavelength and extinction coefficient (spectrophotometer scan); type: physicochemical; conditions: for maximal absorbance wavelength / extinction coefficient: 100 μM in 50:50 de-ionized water and ethanol; for extinction coefficient: in M-1·cm-1 (unit assumed)
Method: To determine the maximal absorbance wavelength (ODmax) and the extinction coefficients for the compounds, each compound is diluted in a 50:50 solution (by volume) of de-ionized water and ethanol at 100 μM and scanned by a spectrophotometer.

CYP24A1 = CYP24A1 expression induction in primary culture of human coronary artery smooth muscle cells; type: cell-based; conditions: HCASMC
Method: as §1, §2, §3, §4

[2] = tested on: 5/6 nephrectomized uremic rats; test: Serum creatinine, BUN, PTH, phosphorus and calcium in 5/6 nephrectomized uremic rats; type: in vivo, Sprague Dawley rats; conditions: for effect on BUN / effect on serum PTH / effect on serum calcium / effect on serum creatinine / effect on serum phosphorus: 5/6 NX rats
Method: The nephrectomy of male, Sprague Dawley, 5/6 rats was performed using a standard two-step surgical ablation procedure (starting body weight ˜200 gm) as previously described (Slatopolsky et al., 1998, Am J Kidney Dis 32: S40-47). Sham operated rats were used as control. The rats were on a diet containing 1.13% calcium and 0.94% phosphorus. Six weeks after the second surgery, treatment was initiated with vehicle (5% ethanol+95% propylene glycol, 0.4 ml/kg) or test agent by intraperitoneal injection (i.p.), 3 times/week, for two weeks (n≥12 per group). Twenty-four hours after the last dose, retro-orbital venous blood was collected for measurement of PTH and other endpoints.
Calcium, serum phosphorus, creatinine, and blood urea nitrogen (BUN) concentrations were measured by a chemistry analyzer (LX-20, Beckman). Serum PTH was measured using a rat intact parathyroid hormone (i-PTH) ELISA kit. For serum chemistry data, group mean±SEM are presented. A t-test was used to analyze differences between baseline 6W (6 weeks after surgery before treatment) and 8W (8 weeks after surgery after two weeks of compound treatment).

[3] = tested on: 5/6 nephrectomized uremic rats; test: Proteinuria in 5/6 nephrectomized uremic rats; type: in vivo, Sprague Dawley rats; conditions: 5/6 NX rats, 3×/week, i.p. for 2 weeks, before versus after treatment
Method: The experimental conditions using the 5/6 (subtotal) nephrectomized rats were as described above. Urinary protein excretion was determined by urinary collection over a period of 24 h in metabolic cages at two time points: 24 h before the first dose and 24 hr after the last dose. Each animal was placed in a metabolic cage and urine was collected during a period of 24 h. Urinary protein concentration was determined by the biuret method (Morozova and Baryshnikova, 1991, Lab Delo 2:23-5). Total protein excretion per day was calculated by multiplying urinary protein concentration by total urine volume produced during the 24 h period.
Group mean±SEM are presented. Differences before versus after treatment were assessed using a t-test. Differences between SHAM, vehicle, and treated animals were assessed using a one-way ANOVA followed by a Dunnett's post-hoc test.

[4] = tested on: 5/6 nephrectomized uremic rats; test: Left ventricular hypertrophy in 5/6 nephrectomized uremic rats; type: in vivo, Sprague Dawley rats; conditions: 5/6 NX rats, 0.16 and 0.64 μg/kg, LVH study
[5] = 24 h, mRNA normalized to GAPDH, Table 3 summary, some values average of 3 or more determinations, read-out: CD14 EC50
[6] = 24 h, Table 4 summary, some values average of 2 or more determinations, read-out: EC50 for VDR induction
[7] = 24 h, Table 4 summary, some values average of 2 or more determinations, read-out: EC50 for CYP24A1 induction
[8] = i.p. 3 times/week for two weeks
[9] = 5/6 NX uremic rats, i.p. 3 times/week for two weeks

Row | Structure (SMILES) | EC50 (CD14; [5]) | EC50 (CD14; typical study, FIG. 2B, read-out: EC50 for inducing CD14 expression) | EC50 (VDR; [6]) | EC50 (VDR; typical study, FIG. 5B, read-out: EC50 for inducing VDR expression) | maximal absorbance wavelength [1] | extinction coefficient [1] | maximal absorbance wavelength (ODmax) ([1]; FIG. 1, typical absorbance profile) | EC50 (CYP24A1; [7]) | EC50 (CYP24A1; typical study, FIG. 5A, read-out: EC50 for inducing CYP24A1 expression) | effect on BUN [2, 8] | effect on serum PTH [2, 8] | effect on serum calcium [2, 8] | effect on serum creatinine [2, 8] | effect on serum phosphorus [2, 8] | dose at which compound starts to suppress serum PTH [2, 9] | proteinuria (urinary protein concentration and total protein per day) [3] | effect on serum Ca [4] | fold less potent in raising serum Ca than Vida-11 ([2]; 5/6 NX uremic rats, FIG. 11A) | fold less potent in suppressing PTH than Vida-11 ([2]; 5/6 NX uremic rats, FIG. 11B) | dose at which compound raises serum Ca [2, 9]
1 | C=C1[C@H](O)CC(=C/C=C2\CCCC3(C)C2CCC3[C@@H](C)OC[C@H](C)C(C)(C)O)C[C@H]1O (stereo partly drawn) [Vida-5, (1R,3R)-5-((E)-2-((3αS,7αS)-1-((R)-1-((S)-3-hydroxy-2,3-dimethylbutoxy)ethyl)-7α-methyldihydro-1H-inden-4(2H,5H,6H, 7H, 7αH)-ylidene)ethylidene)-2-methylenecyclohexane-1,3-diol] | 3.7 nM | 4.1 nM | 3.2 nM | 1.3 nM | 253 nm | 48360 | 253 nm | 2 nM | 2.9 nM | significantly reduced BUN at the two higher doses (0.16 and 0.64 μg/kg) | significantly suppress PTH levels in a dose-dependent manner | did not have a significant effect | at the 4 lower doses, had no significant effect on serum creatinine, but the highest dose reduced serum creatinine | did not have a significant effect | 0.004 µg/kg | reduce proteinuria; also recorded: significantly reduced proteinuria |  |  |  | 
2 | CCC(O)(CC)CCO[C@H](C)C1CCC2/C(=C/C=C3C[C@@H](O)C4(CC4)[C@H](O)C3)CCCC21C (stereo partly drawn) [Vida-10, (4R,8R)-6-((E)-2-((1S,7αS)-1-((R)-1-(3-ethyl-3-hydroxypentyloxy)ethyl)-7α-methyldihydro-1H-inden-4(2H,5H,6H,7H,7αH)-ylidene)ethylidene)spiro[2.5]octane-4,8-diol] | 0.4 nM |  | 0.61 nM |  | 253 nm | 46990 |  | 0.39 nM |  | did not significantly affect |  |  | did not significantly affect | did not significantly affect | 0.16 µg/kg |  | no effect | at least 64 fold | about 16 fold | 
3 | C=C1[C@H](O)CC(=C/C=C2\CCCC3(C)C2CCC3[C@@H](C)OCCC(O)(CC)CC)C[C@H]1O (stereo partly drawn) [Vida-11, (1R,3R)-5-((E)-2-((1S,3αS,7αS)-1-((R)-1-(3-ethyl-3-hydroxypentyloxy)ethyl)-7α-methyldihydro-1H-inden-4(2H, 5H, 6H, 7H, 7αH)-ylidene)ethylidene)-2-methylenecyclohexane-1,3-diol] | 0.9 nM |  | 1.4 nM |  | 254 nm | 60100 |  | 0.39 nM |  | no dose-dependent effect | significantly suppress PTH levels in a dose-dependent manner | elevated serum Ca in a dose-dependent manner | no dose-dependent effect | did not show a significant effect | 0.01 µg/kg | reduce proteinuria; also recorded: significantly reduced proteinuria |  |  |  | 0.01 µg/kg
